Experimental findings from ChEMBL document CHEMBL4842376, “Design, synthesis and biological evaluation of novel hybrids targeting mTOR and HDACs for potential treatment of hepatocellular carcinoma” (Eur J Med Chem, 2021) are described below.

Activity calls are given as the source filed them. The calls are words filed in the database; no cut-off is given here.

One data set has as its system A549. Put plainly: cells. Format: functional, cell-based. The following applies: Homo sapiens, A549, 72 h.
The next data set concerns SK-HEP1. The data set can be described thus: cells. It counts as functional, cell-based. The following applies: Homo sapiens, SK-HEP1, 72 h.
A further data set deals with HCT-116. The data set can be described thus: cells. Format: functional, cell-based. The following applies: Homo sapiens, HCT-116, 72 h.
For a further data set, the system named is SNU-423. The data set can be described thus: Antiproliferative activity against human SNU-423 cells assessed as inhibition of cell growth measured after 72 hrs by MTT assay. Format: functional, cell-based. As to conditions: SNU-423, 72 h.
For data set [1], the target named is Serine/threonine-protein kinase mTOR (Homo sapiens, UniProt P42345). Put plainly: Inhibition of mTOR (unknown origin) at 1 uM using U-Light-4E-BP1 peptide as a substrate in the presence of ATP incubated for 30 mins by Lance ultra assay relative to control.
The next data set has as its system Bel-7402. The data set can be described thus: Antiproliferative activity against human Bel-7402 cells assessed as inhibition of cell growth measured after 72 hrs by MTT assay. It counts as functional, cell-based. As to conditions: Bel-7402, 72 h. Background: Formazan colour is commonly taken as a measure of viable cells.
For a further data set, the system named is PLC-PRF-5. Put plainly: Antiproliferative activity against human PLC-PRF-5 cells assessed as inhibition of cell growth measured after 72 hrs by MTT assay. Format: functional, cell-based. As to conditions: PLC-PRF-5, 72 h.
For a further data set, the system named is MCF7. Put plainly: cells. It counts as functional, cell-based. As to conditions: Homo sapiens, MCF7, 72 h.
Another data set deals with HeLa. Put plainly: cells. Format: functional, cell-based. The following applies: Homo sapiens, 72 h.
Data set [2] has as its target T1, Protein deacetylase HDAC6 (Homo sapiens) (UniProt Q9UBN7).
T1 sequence (whole entry): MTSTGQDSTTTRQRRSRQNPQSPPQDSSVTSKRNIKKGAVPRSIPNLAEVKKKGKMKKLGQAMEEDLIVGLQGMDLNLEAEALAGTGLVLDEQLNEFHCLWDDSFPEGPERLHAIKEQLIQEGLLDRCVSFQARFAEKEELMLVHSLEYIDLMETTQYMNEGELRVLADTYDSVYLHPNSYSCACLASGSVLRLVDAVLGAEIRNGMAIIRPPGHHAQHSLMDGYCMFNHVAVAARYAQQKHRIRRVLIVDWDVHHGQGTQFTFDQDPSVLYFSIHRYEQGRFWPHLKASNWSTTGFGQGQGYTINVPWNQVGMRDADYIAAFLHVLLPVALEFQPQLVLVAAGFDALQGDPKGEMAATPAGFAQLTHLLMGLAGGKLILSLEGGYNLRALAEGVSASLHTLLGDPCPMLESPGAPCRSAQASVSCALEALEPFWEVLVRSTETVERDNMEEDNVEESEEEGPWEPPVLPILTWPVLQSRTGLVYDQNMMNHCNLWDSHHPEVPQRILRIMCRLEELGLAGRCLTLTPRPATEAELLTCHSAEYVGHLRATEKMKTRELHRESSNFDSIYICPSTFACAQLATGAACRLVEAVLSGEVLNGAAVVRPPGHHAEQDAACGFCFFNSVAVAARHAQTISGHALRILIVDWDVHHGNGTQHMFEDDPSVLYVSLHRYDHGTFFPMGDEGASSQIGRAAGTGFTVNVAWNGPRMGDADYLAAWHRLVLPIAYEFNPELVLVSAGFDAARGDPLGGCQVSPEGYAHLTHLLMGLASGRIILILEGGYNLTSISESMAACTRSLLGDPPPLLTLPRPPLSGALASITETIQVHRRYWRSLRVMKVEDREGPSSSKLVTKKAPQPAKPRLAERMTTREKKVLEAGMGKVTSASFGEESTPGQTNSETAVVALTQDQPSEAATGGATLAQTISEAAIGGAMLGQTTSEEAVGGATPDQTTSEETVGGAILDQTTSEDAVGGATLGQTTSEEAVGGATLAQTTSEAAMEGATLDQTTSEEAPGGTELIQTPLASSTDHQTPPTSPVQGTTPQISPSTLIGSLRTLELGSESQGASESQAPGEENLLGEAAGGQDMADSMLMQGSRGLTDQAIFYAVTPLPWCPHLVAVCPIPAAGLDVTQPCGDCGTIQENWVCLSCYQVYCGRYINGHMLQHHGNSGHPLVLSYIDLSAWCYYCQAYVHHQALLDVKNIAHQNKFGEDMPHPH
Put plainly: Inhibition of HDAC6 (unknown origin) at 1 uM using Ac-peptide as a substrate pretreated for 15 mins followed by substrate addition relative to control.

For the next data set, the system named is HepG2. Put plainly: Antiproliferative activity against human HepG2 cells assessed as inhibition of cell growth measured after 72 hrs by MTT assay. It counts as functional, cell-based. The following applies: HepG2, 72 h.
Another data set relates to Huh-7. The data set can be described thus: cells. It counts as functional, cell-based. As to conditions: Homo sapiens, Huh-7, 72 h.
Another data set concerns Hep 3B2. The data set can be described thus: cells. Format: functional, cell-based. As to conditions: Homo sapiens, Hep3B, 72 h.
For another data set, the system named is MDA-MB-231. Put plainly: cells. It counts as functional, cell-based. As to conditions: Homo sapiens, MDA-MB-231, 72 h.
The next data set deals with CNE-2. The data set can be described thus: cells. It counts as functional, cell-based. The following applies: Homo sapiens, CNE-2, 72 h.
Data set [3] in a line: Metabolic stability in rat liver microsomes assessed as parent compound remaining at 10 ug/ml measured after 1 hr in the presence of NADPH by HPLC analysis. It counts as ADME, Microsome. The following applies: at 10 µg/mL; for Stabilty: microsomes, 1 h. (Liver microsomes are a subcellular fraction often used to study metabolism.)
The test system of a further data set is L02. The data set can be described thus: cells. As to conditions: Homo sapiens, L02, 72 h. Format: ADME, cell-based.
The target in a further data set is T2, Histone deacetylase 8 (Homo sapiens, UniProt Q9BY41).
T2 sequence (Q9BY41 whole entry): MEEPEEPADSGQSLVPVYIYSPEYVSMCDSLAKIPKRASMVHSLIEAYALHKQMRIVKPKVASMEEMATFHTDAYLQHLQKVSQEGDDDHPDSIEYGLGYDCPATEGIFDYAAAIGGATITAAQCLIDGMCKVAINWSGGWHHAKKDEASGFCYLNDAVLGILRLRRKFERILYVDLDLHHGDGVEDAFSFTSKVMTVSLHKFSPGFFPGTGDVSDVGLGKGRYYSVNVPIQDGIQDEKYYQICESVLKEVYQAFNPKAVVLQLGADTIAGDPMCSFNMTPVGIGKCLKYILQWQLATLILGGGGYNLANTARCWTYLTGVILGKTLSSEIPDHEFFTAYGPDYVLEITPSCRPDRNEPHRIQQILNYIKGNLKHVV
Put plainly: Inhibition of HDAC8 (unknown origin) using Ac-peptide as a substrate pretreated for 15 mins followed by substrate addition.

The target of data set [4] is T3, Histone deacetylase (Homo sapiens) (UniProt Q13547+O15379+Q9UBN7+Q92769+Q9UQL6+Q8WUI4+Q9BY41+Q96DB2+P56524+Q9UKV0+Q969S8). The data set can be described thus: Inhibition of HDAC in human HepG2 cells assessed as upregulation of alpha-tubulin acetylation at 6 uM measured after 24 hrs by western blot analysis. It counts as cell-based. On the technique in general: A western blot detects proteins with antibodies after separation by electrophoresis.

Another data set addresses Histone deacetylase 2 (Homo sapiens, UniProt Q92769).
Data set [5] addresses T3, Histone deacetylase (Homo sapiens). The data set can be described thus: Inhibition of HDAC in human HepG2 cells assessed as upregulation of histone H3 acetylation at 6 uM measured after 24 hrs by western blot analysis. Format: cell-based.
Another data set can be described thus: in vitro. The following applies: human, L02 cells versus HepG2 cells.
Data set [6] has as its target T4, Protein deacetylase HDAC6 (Homo sapiens, UniProt Q9UBN7).
T4 sequence (Q9UBN7 whole entry): T1 sequence (whole entry)
The data set can be described thus: Inhibition of HDAC6 (unknown origin) using Ac-peptide as a substrate pretreated for 15 mins followed by substrate addition.

The next data set concerns the target Histone deacetylase 1 (Homo sapiens, UniProt Q13547). Put plainly: Inhibition of HDAC1 (unknown origin) using Ac-peptide as a substrate pretreated for 15 mins followed by substrate addition.
A further data set has as its target Histone deacetylase 3 (Homo sapiens, UniProt O15379). The data set can be described thus: Inhibition of HDAC3 (unknown origin) using Ac-peptide as a substrate pretreated for 15 mins followed by substrate addition.

Histone deacetylase 2, sequence (Q92769 whole entry): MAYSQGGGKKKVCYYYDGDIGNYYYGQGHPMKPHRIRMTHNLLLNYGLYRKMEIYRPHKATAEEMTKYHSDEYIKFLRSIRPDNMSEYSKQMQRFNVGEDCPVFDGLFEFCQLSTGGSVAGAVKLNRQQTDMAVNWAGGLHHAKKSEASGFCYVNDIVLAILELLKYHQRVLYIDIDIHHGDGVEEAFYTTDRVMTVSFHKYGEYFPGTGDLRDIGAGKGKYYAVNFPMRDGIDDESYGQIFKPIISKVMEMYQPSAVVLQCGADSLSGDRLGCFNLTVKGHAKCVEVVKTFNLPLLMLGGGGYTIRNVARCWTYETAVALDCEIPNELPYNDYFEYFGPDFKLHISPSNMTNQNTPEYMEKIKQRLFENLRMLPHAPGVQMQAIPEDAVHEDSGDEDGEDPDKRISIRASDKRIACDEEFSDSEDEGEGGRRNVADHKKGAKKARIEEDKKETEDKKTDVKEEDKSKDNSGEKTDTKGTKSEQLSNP
Histone deacetylase 3, sequence (O15379 whole entry): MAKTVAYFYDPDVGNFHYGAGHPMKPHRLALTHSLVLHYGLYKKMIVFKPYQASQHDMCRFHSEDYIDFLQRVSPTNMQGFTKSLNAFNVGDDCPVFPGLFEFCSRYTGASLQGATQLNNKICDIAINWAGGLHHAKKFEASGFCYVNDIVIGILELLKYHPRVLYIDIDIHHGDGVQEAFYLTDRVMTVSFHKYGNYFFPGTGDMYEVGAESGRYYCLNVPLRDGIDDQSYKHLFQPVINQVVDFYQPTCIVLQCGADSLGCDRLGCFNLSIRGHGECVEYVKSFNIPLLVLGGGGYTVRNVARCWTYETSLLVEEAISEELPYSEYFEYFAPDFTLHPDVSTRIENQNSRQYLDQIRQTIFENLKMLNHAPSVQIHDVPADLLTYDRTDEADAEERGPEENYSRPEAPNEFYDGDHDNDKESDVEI
Histone deacetylase 1, sequence (Q13547 whole entry): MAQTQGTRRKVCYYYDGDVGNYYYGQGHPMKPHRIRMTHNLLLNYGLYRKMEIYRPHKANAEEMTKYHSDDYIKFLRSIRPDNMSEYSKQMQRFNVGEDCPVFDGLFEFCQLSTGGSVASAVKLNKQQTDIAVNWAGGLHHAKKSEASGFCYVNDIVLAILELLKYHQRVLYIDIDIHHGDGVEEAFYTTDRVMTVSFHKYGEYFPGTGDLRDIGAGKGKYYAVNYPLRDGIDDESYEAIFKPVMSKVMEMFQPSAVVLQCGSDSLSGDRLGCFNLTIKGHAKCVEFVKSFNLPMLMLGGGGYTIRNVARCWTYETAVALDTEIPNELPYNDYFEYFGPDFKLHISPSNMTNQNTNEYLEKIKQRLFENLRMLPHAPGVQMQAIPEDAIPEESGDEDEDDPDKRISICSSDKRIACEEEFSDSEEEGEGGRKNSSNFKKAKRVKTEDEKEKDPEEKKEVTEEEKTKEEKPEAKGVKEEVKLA
Description for A549: Antiproliferative activity against human A549 cells assessed as inhibition of cell growth measured after 72 hrs by MTT assay
Description for CNE-2: Antiproliferative activity against human CNE-2 cells assessed as inhibition of cell growth measured after 72 hrs by MTT assay
Description for HCT-116: Antiproliferative activity against human HCT-116 cells assessed as inhibition of cell growth measured after 72 hrs by MTT assay
Description for HeLa: Antiproliferative activity against human HeLa cells assessed as inhibition of cell growth measured after 72 hrs by MTT assay
Description for Hep 3B2: Antiproliferative activity against human Hep3B cells assessed as inhibition of cell growth measured after 72 hrs by MTT assay
Description for Huh-7: Antiproliferative activity against human Huh-7 cells assessed as inhibition of cell growth measured after 72 hrs by MTT assay
Description for L02: Cytotoxicity against human L02 cells assessed as reduction in cell viability measured after 72 hrs by MTT assay
Description for MCF7: Antiproliferative activity against human MCF7 cells assessed as inhibition of cell growth measured after 72 hrs by MTT assay
Description for MDA-MB-231: Antiproliferative activity against human MDA-MB-231 cells assessed as inhibition of cell growth measured after 72 hrs by MTT assay
Description for SK-HEP1: Antiproliferative activity against human SK-HEP1 cells assessed as inhibition of cell growth measured after 72 hrs by MTT assay
Description for in vitro: Selectivity index, ratio of IC50 for cytotoxicity against human L02 cells to IC50 for antiproliferative activity against human HepG2 cells

One may read the IC50 as the point on the concentration scale where inhibition reaches its midpoint. The term inhibition denotes the percentage by which the read-out fell short of the control. In the case of `Nc1ncnc2c1c(-c1cnc3[nH]ccc3c1)nn2CCCCCCCC(=O)NO`, the IC50 is 51 µM in the data set on A549; 3.95 µM in the data set on SK-HEP1; 6.76 µM in the data set on HCT-116; 5.4 µM in the data set with SNU-423; 17.4 µM in the data set on Bel-7402; 35.9 µM in the data set with PLC-PRF-5. Moreover, the half-maximal inhibitory concentration (IC50) in the data set with MCF7 was found to be 7.57 µM; in the data set on HeLa, 29.1 µM; in the data set with HepG2, 5.63 µM; in the data set with Huh-7 it was 23.5 µM; with Hep 3B2 it was 16.3 µM; in the data set on MDA-MB-231, 15.8 µM. This compound came in with an IC50 with CNE-2 of 8.99 µM. For the same compound, the inhibition in [1] came out at 98.7%; in [2], 100%.

As for `O=C(CCCCCCC(=O)Nc1ccccc1)NO` [VORINOSTAT], the IC50 with SNU-423 turned out to be 0.079 µM; in the data set with Bel-7402 it was 27.4 µM; with PLC-PRF-5, 2.22 µM. In [3], the Stabilty entry was “Stable”.

As for `CC(C)n1nc(-c2ccc3oc(N)nc3c2)c2c(N)ncnc21` [SAPANISERTIB], the IC50 is 0.174 µM with A549; 0.008 µM with SK-HEP1; 0.048 µM in the data set on HCT-116; 0.015 µM in the data set with SNU-423; above 100 µM in the data set on Bel-7402; 6.63 µM with PLC-PRF-5. Further, the IC50 in the data set on MCF7 was 0.053 µM; with HeLa, 0.036 µM; in the data set on HepG2, 2.13 µM; with L02, 0.28 µM; in the data set on Huh-7, 0.007 µM; in the data set with Hep 3B2, 4.43 µM. Also, the IC50 in the data set with MDA-MB-231 was determined as 0.031 µM; in the data set on CNE-2, 0.101 µM. The Stabilty entry in [3] is given as “Stable”.

Regarding `Nc1nc2cc(-c3nn(CCCCCCCC(=O)NO)c4ncnc(N)c34)ccc2o1`, the IC50 with A549 is 8.36 µM; in the data set on SK-HEP1, 10.7 µM; in the data set on HCT-116, 3.15 µM; at Histone deacetylase 8, 0.334 µM; in the data set with SNU-423, 0.28 µM; with Bel-7402, 13.2 µM. The concentration for half-maximal inhibition (IC50) in the data set with PLC-PRF-5 was 30.5 µM; in the data set on MCF7, 7.22 µM; in the data set on HeLa, 12.9 µM; on Histone deacetylase 2, 0.0034 µM; in the data set with HepG2 it was 3.64 µM; in the data set with L02, 8.04 µM. Also, the half-inhibitory concentration (IC50) in the data set with Huh-7 worked out at 2.77 µM; in data set [6], 0.00673 µM; at Histone deacetylase 1, 0.0025 µM; in the data set with Hep 3B2 it was 10.3 µM; in the data set with MDA-MB-231, 2.9 µM; in the data set with CNE-2, 2.25 µM. Besides, the IC50 at Histone deacetylase 3 came to 0.0071 µM. Besides, the inhibition entry in [4] and in data set [5] was “Active” each time. Further, the inhibition is 99.6% in [1] and 99.1% in [2]. Besides, the remaining at 1 h, 10 ug/ml in data set [3] (liver microsomes, read-out: Stabilty) is 63.9%. Also, the selectivity ratio in the data set “in vitro” stood at 2.21.
